Laboratory results taken from US10588950B2, “Compositions and methods for counteracting Factor Xa inhibition” (Pfizer Inc., priority 2013, dated 2020).

Tests used:
[1] = test system: whole blood clot formation; assay: Whole blood rotational thromboelastometry (ROTEM); type: cell-based, human
Procedure: Whole blood thromboelastometry was used to assess the ability of the FXa^I16L variant to reverse the effects of the direct FXa inhibitors in whole blood. In this system, blood is drawn from healthy volunteers. The first 2 mL of blood were discarded and the subsequent 5 mL of blood was collected into a vacutainer (BID, Franklin Lakes, N.J.). Corn trypsin inhibitor and sodium citrate were in the collection tube, prior to collection of the blood sample, to achieve a final concentration of 0.105 M citrate and 25 μg/mL corn trypsin inhibitor (Haematologic Technologies, Burlington, Vt.) in the blood. Two sets of reactions were analyzed for each donor. The initial reaction initiated 5 minutes post blood collection. The second reaction initiated 1 hour post initiation of first reaction (1 hour 5 minutes after collection).
Blood was analyzed using Thromboelastometry ROTEM® delta (Tem International GmbH, Munich, Germany). For the reaction: (1) 6 μL of vehicle, protein, and/or inhibitor were added to the empty cup, (2) 20 μl of 0.2 M CaCl2 (final concentration 11.6 mM), and (3) 20 μl of Innovin (final concentration in reaction 1:10,000; source of tissue factor) were added to the cup. Whole blood collected as described above was added to the reaction (300 up and recordings were allowed to proceed for approximately 30-60 minutes. The data collected was analyzed using the manufacture's software. (Rotem Gamma Software Version 1.1.1).

[2] = test system: thrombin generation in normal human plasma; assay: Thrombin generation assay (TGA) in normal human plasma, Example 2; type: biochemical; conditions: 500 nM rivaroxaban versus plasma without rivaroxaban
Procedure: The thrombin generation assay (TGA) was used to assess whether the zymogen-like FXa variants can reverse the effects of direct FXa inhibitors in a more physiologic environment. The TGA measures thrombin production in plasma over time following the initiation of coagulation and was performed as previously described (See Bunce et al., (2011) Blood 117, 290-298, incorporated by reference herein in their entirety). […] Thrombin generation was initiated with 2.0 pM tissue factor/4 uM phospholipid as well as CaCl2 and a thrombin fluorogenic substrate.

[3] = test system: clot formation at site of vascular injury; assay: Laser-induced injury of mouse cremaster muscle, intravital microscopy; type: in vivo; conditions: 1 mg/kg rivaroxaban
Excerpt: Using standard techniques, the cremaster muscle of mice was exposed and visualized using intravital microscopy. A vascular injury in the muscle was then induced using a laser. After injury, clot formation was visualized using different fluorescently labeled antibodies that specifically recognize fibrin and platelets. Clotting is indicated by the presence of fluorescent signal from both types of antibodies.

[4] = test system: blood loss following a tail cut; conditions: mouse, in vivo, 50 mg/kg
Procedure: Thirty minutes later, mice were anesthetized with isoflurane and placed on a heated platform, and the body temperature of the mice was maintained at 37° C. prior to the tail cut. The tails were immersed in 50 mL pre-warmed phosphate buffered saline (PBS) at 37° C. for 2 minutes. A 3 mm tail cut was made and blood was collected into PBS for a 10 minute period. A quantitative assessment of the amount of bleeding was determined by hemoglobin content of the blood collected into PBS. Tubes were centrifuged to collect erythrocytes, resuspended in 5 mL lysis buffer (8.3 g/L NH4Cl, 1.0 g/L KHCO3, and 0.037 g/L EDTA), and the absorbance of the sample was measured at 575 nm. The absorbance values were converted to total blood loss (μL) using a standard curve.
Mice were then anesthetized with isoflurane and placed on a heated platform, and the body temperature of the mice was maintained at 37° C. prior to the tail cut. The tails were immersed in 50 mLs pre-warmed phosphate buffered saline (PBS) at 37° C. for 2 minutes. A 3 mm tail cut was made and blood was collected into PBS for a 10 minute period and the assessment of the amount of bleeding was determined by hemoglobin content as described.

[5] = test system: clotting time of whole blood; assay: ROTEM of whole blood from mice administered rivaroxaban and FXa^I16L in vivo; parameters: species or system C57BL/6 mice; conditions: 1 mg/kg rivaroxaban via tail vein, buffer only about 2 min
Procedure: Mice were then prepared to expose the jugular vein and the vena cava. Approximately 10 mill later FXa^I16L (1 or 2 mg/kg) was infused by direct injection into the jugular vein. Five minutes post injection blood was collected via the vena cava into citrate and corn trypsin inhibitor. Collected blood was then analyzed by ROTEM using dilute tissue factor (Innovin, 1:42,000 dilution).

FXa^I16L = FXa^I16L (Homo sapiens, UniProt P00742, I235L); assay: Inhibition of free FXa^I16L peptidyl substrate (SpecXa) hydrolysis by rivaroxaban; type: biochemical; conditions: free enzyme
Sequence of FXa^I16L (P00742 41-179): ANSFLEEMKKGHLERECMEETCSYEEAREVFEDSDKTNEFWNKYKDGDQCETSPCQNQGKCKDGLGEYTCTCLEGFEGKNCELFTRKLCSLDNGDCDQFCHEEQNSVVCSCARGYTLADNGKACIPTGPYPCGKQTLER
Sequence of FXa^I16L (P00742 235-488 I235L): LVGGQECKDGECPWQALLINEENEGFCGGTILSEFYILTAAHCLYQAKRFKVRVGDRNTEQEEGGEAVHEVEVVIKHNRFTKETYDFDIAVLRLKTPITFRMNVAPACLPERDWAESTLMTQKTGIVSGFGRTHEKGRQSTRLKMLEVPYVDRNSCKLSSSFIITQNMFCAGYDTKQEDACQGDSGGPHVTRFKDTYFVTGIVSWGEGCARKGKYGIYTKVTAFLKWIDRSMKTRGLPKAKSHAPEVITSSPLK

[6] = test system: thrombin generation in normal human plasma; assay: Thrombin generation assay using calibrated automated thrombography (CAT), Example 4; type: biochemical
Procedure: Normal human plasma was obtained from George King Biomedical (Overland Park, Kans.). […] Immediately preceding reaction initiation, 10 μL of vehicle or FXa^I16L was added to plasma at final concentrations ranging from 0.03125 nM to 0.5 nM FXa^I16L, given a 120 μL total reaction volume. Reactions were initiated by addition of 20 μL FluCa buffer containing calcium chloride and fluorogenic substrate. Fluorescence of plasma reactions was read at 37° C. at 20 second intervals on a Fluoroskan Ascent fluorometer and compared to those of reference thrombin calibrator reactions to determine thrombin concentrations. The intensity of the fluorescence signal (FU) was continuously monitored at 37° C. using the CAT. Thrombin generation curves (nM thrombin vs. time) were analyzed to extract lag time, peak height, time to peak, and the area under the curve representing the endogenous thrombin potential (ETP) using the Thromboscope software (Thrombinoscope BV version).

[7] = high doses (supratherapeutic concentrations)
[8] = low doses (therapeutic concentrations)

| SMILES | whole blood clot formation, inhibitor alone [1, 7] | whole blood clot formation, inhibitor alone [1, 8] | thrombin generation profile of plasma [2] | accumulation of platelets at the injury site [3] | signs of fibrin at the injury site [3] | blood loss following the tail transection [4] | clot time of whole blood (ROTEM) [5] | reduced affinity to FXa^I16L versus wild-type FXa (FXa^I16L) [fold] | thrombin generation in normal human plasma ([6]; in vitro rivaroxaban treatment 5-200 nM) | ETP ([6]; rivaroxaban alone) | lag time ([6]; rivaroxaban alone) | peak thrombin ([6]; rivaroxaban alone) |
| --- | --- | --- | --- | --- | --- | --- | --- | --- | --- | --- | --- | --- |
| COc1ccc(-n2nc(C(N)=O)c3c2C(=O)N(c2ccc(N4CCCCC4=O)cc2)CC3)cc1 [apixaban] | almost completely eliminated | partially eliminated | – | – | – | – | – | – | – | – | – | – |
| O=C(NC[C@H]1CN(c2ccc(N3CCOCC3=O)cc2)C(=O)O1)c1ccc(Cl)s1 [rivaroxaban] | almost completely eliminated | partially eliminated | substantially reduced | delayed | eliminated | increase | Approximately 10 min | ~15 | dose dependent inhibition | decrease | increase | decrease |
